PubChem BioAssay (NCI)
Where “and” joins values, the source holds several entries; their conditions need not be identical. Equal entries are not always repeated.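 Briefly, cells in 96-well plates were exposed to five compound concentrations for 48 h, and endpoints were estimated by linear interpolation. Abbreviation: GI50, concentration required for 50% inhibition of growth. TGI denotes the concentration required for complete inhibition of growth.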

How the values were obtained:
Experiment in all cases: DTP human tumour cell line panel, 48 h
COLO 205 colon = test system: COLO 205 colon
T-47D breast = test system: T-47D breast
HCC-2998 colon = test system: HCC-2998 colon
OVCAR-5 ovarian = test system: OVCAR-5 ovarian
IGROV1 ovarian = test system: IGROV1 ovarian
UO-31 renal = test system: UO-31 renal
HOP-62 NSCLC = test system: HOP-62 NSCLC
CCRF-CEM leukemia = test system: CCRF-CEM leukemia
ACHN renal = test system: ACHN renal
PC-3 prostate = test system: PC-3 prostate

SMILES	GI50 (COLO 205 colon) [nM]	TGI (COLO 205 colon)	GI50 (T-47D breast) [nM]	TGI (T-47D breast) [µM]	GI50 (HCC-2998 colon) [nM]	TGI (HCC-2998 colon)	GI50 (OVCAR-5 ovarian) [µM]	TGI (OVCAR-5 ovarian)	GI50 (IGROV1 ovarian) [nM]	TGI (IGROV1 ovarian)	GI50 (UO-31 renal) [nM]	TGI (UO-31 renal)	GI50 (HOP-62 NSCLC) [µM]	TGI (HOP-62 NSCLC)	GI50 (CCRF-CEM leukemia) [µM]	TGI (CCRF-CEM leukemia)	GI50 (ACHN renal) [nM]	TGI (ACHN renal) [µM]	GI50 (PC-3 prostate) [µM]	TGI (PC-3 prostate) [µM]
O=c1[nH]c(C2CCCN2)nc2c1oc1ccc(Cl)cc12 (stereo not given)	26000	> 100 µM	30500	> 100	> 100000	> 100 µM	> 100	> 100 µM	> 100000	> 100 µM	26900	> 100 µM	49.9	> 100 µM	68.1	> 100 µM	> 100000	> 100	> 100	> 100
O=C1C(=O)c2c(nc3ccc(C(F)(F)F)cn23)-c2ccccc21	1630	3.52 µM	214	0.57	499	0.988 µM	0.414	0.998 µM	191	0.47 µM	164	0.345 µM	0.169	0.339 µM	0.39	–	185	0.381	0.21	0.761
Oc1ccc(Cl)cc1C=Nc1cnc2ccccc2c1	–	> 100 µM	–	51.3	–	–	–	> 100 µM	–	> 100 µM	–	> 100 µM	–	> 100 µM	–	7.1 µM	–	> 100	–	> 88.4
C[C@@]1(F)[C@H](O)[C@@H](CO)O[C@H]1n1ccc(=O)[nH]c1=O	> 100000	> 100 µM	> 100000	> 100	> 100000	> 100 µM	> 100	> 100 µM	> 100000	> 100 µM	> 100000	> 100 µM	> 100	> 100 µM	> 100	> 100 µM	> 100000	> 100	> 100	> 100
C[C@@H]1C[C@@H]([C@H](O)CC2CC(=O)NC(=O)C2)C(=O)[C@@H](C)C1	224	2 µM and 1.47 µM	231	5.07	325	7.93 µM and 3.63 µM	0.317	14.6 µM and 4.02 µM	388	15 µM and 3.15 µM	230	4.63 µM and 0.675 µM	0.26	3.63 µM and 1.67 µM	0.0958	1.15 µM and 0.406 µM	155	–	0.243	4.51
COc1c2ccoc2nc2c(OC)c(OCC(O)C(C)(C)O)ccc12 (stereo not given)	–	> 100 µM	–	> 100	–	> 100 µM	–	> 100 µM	–	> 100 µM	–	> 100 µM	–	–	–	> 100 µM	–	> 100	–	> 100
Nc1cc2c3c(cccc3c1)C(=O)N(CCN1CCCC1)C2=O	1680	10.3 µM	1930	9.36	2780	15 µM	4.73	> 57.6 µM	1330	> 100 µM	2350	> 100 µM	2.58	25.5 µM	3.88	> 35.6 µM	–	–	3.89	> 66.6
C/C(=N/NC(=S)Nc1ccccc1)c1nc2ccc(Cl)cc2[nH]1	–	–	292	1.56	135	0.725 µM	–	–	140	1.19 µM	73.8	0.795 µM	0.101	0.935 µM	0.039	7.18 µM	–	–	0.236	2.23
COc1cc(C2CC(c3ccc(Nc4nc(NCCO)nc(NCCO)n4)cc3)=NN2c2cc(Cl)cc(Cl)c2)cc(OC)c1OC (stereo not given)	2700	9.29 µM	1180	12.1	2140	4.84 µM	2.15	7.56 µM	2020	4.8 µM	2080	8.09 µM	–	–	2.53	10.7 µM	2580	13.1	1.04	3.61
O=C1c2cccc3cccc(c23)C(=O)N1CCCCCN1CCN(CCN=c2cc3n(-c4ccc(Cl)cc4)c4ccccc4nc-3cc2Nc2ccc(Cl)cc2)CC1	2380	> 50 µM	32800	> 50	8930	31.4 µM	10.2	20.1 µM	–	–	–	–	8.63	23.5 µM	7.38	25.2 µM	2880	> 50	6.36	28.4
COc1cc2c(cc1C)NC(=O)/C2=C/c1ccnc2ccccc12	38900	> 50 µM	28700	> 50	35700	> 50 µM	30	> 50 µM	12600	> 50 µM	18900	> 50 µM	> 50	> 50 µM	–	–	10300	25.6	7.07	> 50
COC(=O)C(C(=O)C(=O)Nc1c(C)cccc1C(C)(C)C)c1nc2ccc(Cl)cc2[nH]c1=O (stereo not given)	–	–	–	> 100	–	> 100 µM	–	> 100 µM	–	> 100 µM	–	> 100 µM	–	> 100 µM	–	> 100 µM	–	> 100	–	> 100
O=C(Nc1ccc(Cl)cc1C(F)(F)F)C(=O)Nn1c(=S)[nH]c2ccccc2c1=O	–	–	–	> 100	–	> 100 µM	–	> 100 µM	–	–	–	> 100 µM	–	> 100 µM	–	> 100 µM	–	> 100	–	> 100
C=C1C(=O)O[C@@H]2/C=C(/C)[C@@H](OC(C)=O)C/C=C(\C)C(O)[C@@H](OC(=O)/C(C)=C\C)C12 (stereo not given in full)	–	32 µM	–	39.7	–	55.4 µM	–	> 100 µM	–	> 100 µM	–	–	–	> 100 µM	–	57.2 µM	–	40.8	–	> 100
CCN(CC)C(=S)SSC(C)C	41.2	20.6 µM	14200	33.7	16800	31.1 µM	18.3	32.6 µM	–	–	8990	24.1 µM	24.7	86.7 µM	4.26	30.8 µM	17200	33.3	14.1	29.2
CCOc1c(Br)cc(Br)cc1C=C(C#N)C#N	–	> 10 µM	–	> 10	–	> 10 µM	–	–	–	> 10 µM	–	–	–	> 10 µM	–	> 10 µM	–	> 10	–	> 10
COc1cc(O)ccc1C(=S)SC	–	> 100 µM	–	> 100	–	–	–	> 100 µM	–	> 100 µM	–	> 100 µM	–	> 100 µM	–	–	–	> 100	–	> 100
